Several values for one entry are separate records, joined by “and”; a condition that tells them apart may be missing. Equal entries are not always repeated. Structures can show the parent of a compound that is named as a salt.
Experiments:
NOP receptor [1] = biological target: T1, NOP receptor (Homo sapiens, UniProt P41146); assay type: binding
T1 construct: expressed in transfected cells

MOP receptor [2] = biological target: T2, MOP receptor (Homo sapiens, UniProt P35372); assay type: binding
T2 construct: expressed in transfected cells
T2 sequence (P35372 whole entry): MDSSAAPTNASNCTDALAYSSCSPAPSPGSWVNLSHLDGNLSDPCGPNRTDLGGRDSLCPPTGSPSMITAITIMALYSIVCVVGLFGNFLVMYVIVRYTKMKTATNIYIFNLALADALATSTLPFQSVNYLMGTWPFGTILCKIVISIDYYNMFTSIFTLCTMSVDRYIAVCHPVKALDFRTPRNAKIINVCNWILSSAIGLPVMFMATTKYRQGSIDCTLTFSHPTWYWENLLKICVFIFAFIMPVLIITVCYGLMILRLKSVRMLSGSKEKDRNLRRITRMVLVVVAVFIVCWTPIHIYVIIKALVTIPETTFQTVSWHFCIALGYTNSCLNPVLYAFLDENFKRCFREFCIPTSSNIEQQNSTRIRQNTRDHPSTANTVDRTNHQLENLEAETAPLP

DOP receptor [3] = biological target: T3, DOP receptor (Homo sapiens, UniProt P41143); assay type: binding
T3 construct: expressed in transfected cells
T3 sequence (P41143 whole entry): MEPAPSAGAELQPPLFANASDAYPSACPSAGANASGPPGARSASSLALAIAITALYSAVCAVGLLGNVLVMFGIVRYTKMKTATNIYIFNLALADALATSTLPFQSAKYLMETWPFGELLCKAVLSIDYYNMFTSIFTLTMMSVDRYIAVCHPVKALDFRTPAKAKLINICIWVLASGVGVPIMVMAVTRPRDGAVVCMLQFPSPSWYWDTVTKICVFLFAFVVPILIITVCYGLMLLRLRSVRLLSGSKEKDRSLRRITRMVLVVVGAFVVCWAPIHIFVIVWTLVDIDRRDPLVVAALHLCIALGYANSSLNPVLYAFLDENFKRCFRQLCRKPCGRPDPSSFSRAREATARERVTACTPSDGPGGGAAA

KOP receptor [4] = biological target: T4, KOP receptor (Homo sapiens, UniProt P41145); assay type: binding
T4 construct: expressed in transfected cells
T4 sequence (P41145 whole entry): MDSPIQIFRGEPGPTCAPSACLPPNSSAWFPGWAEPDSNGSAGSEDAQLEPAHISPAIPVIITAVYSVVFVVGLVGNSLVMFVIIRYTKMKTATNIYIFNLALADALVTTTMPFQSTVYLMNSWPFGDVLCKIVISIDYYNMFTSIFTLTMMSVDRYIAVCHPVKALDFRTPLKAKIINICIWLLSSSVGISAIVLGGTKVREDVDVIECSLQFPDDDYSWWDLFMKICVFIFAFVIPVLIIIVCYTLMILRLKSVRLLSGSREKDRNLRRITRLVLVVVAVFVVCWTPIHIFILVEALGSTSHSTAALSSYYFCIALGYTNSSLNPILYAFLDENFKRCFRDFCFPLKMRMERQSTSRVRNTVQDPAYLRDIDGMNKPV

NOP receptor [5] = biological target: T1, NOP receptor; test: [35S]GTPγS binding stimulation (agonist), CHO membranes; assay type: biochemical; settings: for NOP % stim: [35S]GTPγS stimulation relative to standard agonist N/OFQ; for EC50: [35S]GTPγS stimulation, average ± SD
MOP receptor [6] = biological target: T2, MOP receptor; assay type: biochemical
KOP receptor [7] = biological target: T4, KOP receptor; assay type: biochemical
CD1 mice = test: Mouse tail flick assay (radiant heat, acute thermal nociception); assay type: in vivo
MOP receptor [8] = biological target: T2, MOP receptor; test: [35S]GTPγS antagonist assay and Schild analysis versus DAMGO; assay type: biochemical; settings: for Type of antagonism at MOP: Schild analysis; for MOP pA2 / MOP Ke: antagonist activity in [35S]GTPγS assay, Schild analysis versus DAMGO; for MOP Ke: unit not given
DOP receptor [9] = biological target: T3, DOP receptor; test: [35S]GTPγS binding stimulation (agonist), CHO membranes; assay type: biochemical; settings: for DOP % stim: [35S]GTPγS stimulation relative to standard agonist DPDPE
KOP receptor [10] = biological target: T4, KOP receptor; test: [35S]GTPγS antagonist assay versus U69593; assay type: biochemical
DOP receptor [11] = biological target: T3, DOP receptor; test: [35S]GTPγS antagonist assay versus DPDPE; assay type: biochemical
NOP receptor [12] = biological target: T1, NOP receptor; test: [35S]GTPγS antagonist assay versus N/OFQ; assay type: biochemical

T1 sequence (P41146 whole entry): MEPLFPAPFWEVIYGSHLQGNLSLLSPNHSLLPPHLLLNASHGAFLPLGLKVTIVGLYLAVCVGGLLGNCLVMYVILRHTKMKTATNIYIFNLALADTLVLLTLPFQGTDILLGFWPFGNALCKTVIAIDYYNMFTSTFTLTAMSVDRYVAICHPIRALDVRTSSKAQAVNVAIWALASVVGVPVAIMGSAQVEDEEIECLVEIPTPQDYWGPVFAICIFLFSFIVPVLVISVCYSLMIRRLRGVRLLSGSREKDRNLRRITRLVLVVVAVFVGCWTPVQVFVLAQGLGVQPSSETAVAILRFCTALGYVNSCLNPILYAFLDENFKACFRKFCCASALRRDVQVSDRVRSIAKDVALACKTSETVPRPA

Structure (SMILES) | Ki (NOP receptor [1]) [nM] | Ki (MOP receptor [2]) [nM] | Ki (DOP receptor [3]) [nM] | Ki (KOP receptor [4]) [nM] | NOP % stim (NOP receptor [5]) [%] | EC50 (NOP receptor [5]) [nM] | EC50 (MOP receptor [6]) [nM] | MOP % stim (MOP receptor [6]) [%] | EC50 (KOP receptor [7]) [nM] | KOP % stim (KOP receptor [7]) [%] | Type of antagonism at MOP (MOP receptor [8]) | MOP pA2 (MOP receptor [8]) | MOP Ke (MOP receptor [8]) | DOP % stim (DOP receptor [9]) [%] | other results
O=C(Cc1ccccc1F)O[C@@]12CCC(=O)[C@@H]3Oc4c(O)ccc5c4[C@@]31CCN(CC1CC1)[C@@H]2C5 [Compound 7i, 14β-(2′-fluorophenylacetyl)-17-cyclopropylmethyl-7,8-dihydronoroxymorphinone] | 69.7 ± 2.4 | 2.59 ± 1.1 | 4.07 ± 0.91 | 4.55 ± 0.7 | 14.5 ± 2.9 | 94.1 ± 24.7 | 2 ± 0.7 | 27.9 ± 2.8 | 4 ± 2 | 43.8 ± 4.7 |  |  |  |  | 
CN1CC[C@]23c4c5ccc(O)c4O[C@H]2[C@@H](O)C=C[C@H]3[C@H]1C5 [morphine, Morphine hydrochloride, reference compound] |  |  |  |  |  |  |  |  |  |  |  |  |  |  | %MPE, tail flick, positive control (CD1 mice; 3 mg/kg, 30, 60, 120 min): anticipated increase in %MPE at all time points
O=C(Cc1ccccc1Cl)O[C@@]12CCC(=O)[C@@H]3Oc4c(O)ccc5c4[C@@]31CCN(CC1CC1)[C@@H]2C5 [Compound 7k, 14β-(2′-chlorophenylacetyl)-17-cyclopropylmethyl-7,8-dihydronoroxymorphinone] | 32.6 ± 2.3 | 4.66 ± 1.8 | 3.24 ± 0.15 | 1.34 ± 0.5 | 49.9 ± 0.7 | 808 ± 45.8 | 2.4 ± 0.6 | 39.3 ± 4.7 | 13.9 ± 6.4 | 31.3 ± 5.6 |  |  |  |  | 
O=C(Cc1ccc2c(c1)OCO2)O[C@@]12CCC(=O)[C@@H]3Oc4c(O)ccc5c4[C@@]31CCN(CC1CC1)[C@@H]2C5 [Compound 7g, 14β-(3′,4′-dioxymethylenephenylacetyl)-17-cyclopropylmethyl-7,8-dihydronoroxymorphinone] | 94.3 ± 28 | 0.99 ± 0.35 | 1.25 ± 0.2 | 1.2 ± 0.42 | 43.5 ± 9.4 | 562 ± 67.5 |  | 12.1 ± 3.7 | 5.4 ± 0.1 | 41.1 ± 0.9 | very potent competitive antagonists | 10.29 ± 0.24 | 0.051 ± 0.018 |  | 
COc1ccc(CC(=O)O[C@@]23CCC(=O)[C@@H]4Oc5c(O)ccc6c5[C@@]42CCN(CC2CC2)[C@@H]3C6)cc1 [Compound 7f, 14β-(4′-methoxyphenylacetyl)-17-cyclopropylmethyl-7,8-dihydronoroxymorphinone] | 49.8 ± 7.1 | 1.08 ± 0.33 | 2.56 ± 0.48 | 1.9 ± 0.42 | 8.9 ± 1.0 | 61.8 ± 20.1 |  | 7.8 ± 3.5 |  | 6.5 ± 3.3 | very potent competitive antagonists | 10.58 ± 0.13 and 10.58 ± 0.14 | 0.026 ± 0.008 | 18.4 ± 1.3 | EC50 (DOP receptor [9]; [35S]GTPγS stimulation, * = too little stimulation (if < 15% an EC50 was not always determined)): 59.4 ± 19.6 nM; IC50 (MOP receptor [8]; in the presence of 1 μM DAMGO, read-out: IC50 inhibiting DAMGO stimulation of [35S]GTPγS binding, MOP): 12.4 ± 2.25 nM; Type of inhibition at KOP (KOP receptor [10]; [35S]GTPγS antagonist assay): non-competitive; IC50 (KOP receptor [10]; [35S]GTPγS, in the presence of 1 μM U69593): 12.2 ± 0.11 nM; Type of inhibition at DOP (DOP receptor [11]; [35S]GTPγS antagonist assay): non-competitive; IC50 (DOP receptor [11]; [35S]GTPγS, in the presence of 1 μM DPDPE): 48.1 ± 14.1 nM; Type of inhibition at NOP (NOP receptor [12]; [35S]GTPγS antagonist assay): non-competitive; IC50 (NOP receptor [12]; [35S]GTPγS, in the presence of 100 nM N/OFQ): 5640 nM; Tail flick latency versus vehicle controls (CD1 mice; 1 mg/kg s.c.): significant increase in tail flick latency compared to vehicle controls at the 60- and 120-min time points; Effect on morphine-induced antinociception, tail flick (CD1 mice; 1 mg/kg s.c. given 10 min before morphine, P < 0.05): morphine-induced antinociception was attenuated at the 30- and 60-min time points; Antinociception versus vehicle controls, tail flick (CD1 mice; 3.0 mg/kg s.c.): significant antinociception at the 30- and 120-min time points; Antinociception (%MPE), tail flick (CD1 mice; 1 and 3 mg/kg s.c., 30, 60, 120 min): low levels of antinociception
O=C(Cc1ccc(Cl)cc1)O[C@@]12CCC(=O)[C@@H]3Oc4c(O)ccc5c4[C@@]31CCN(CC1CC1)C2C5 [Compound 7j, 14β-(4′-chlorophenylacetyl)-17-cyclopropylmethyl-7,8-dihydronoroxymorphinone] | 51.3 ± 14 | 1.78 ± 0.03 | 4.95 ± 1.1 | 3.95 ± 0.59 | 18.9 ± 2.7 | 298 ± 18.6 |  | 8.2 ± 7.2 | 5.4 ± 1.3 | 37.1 ± 0.2 | non-competitive | Non-competitive |  | 37.2 ± 0.2 | 

— PMC6156383 (Frontiers in Psychiatry, 2018)
